In ChEMBL document CHEMBL1139958, “Synthesis and biological evaluation of analogues of the anti-tumor alkaloid naamidine A” (Bioorg Med Chem Lett, 2007):

experiment: Inhibition EGF-dependent mitogenesis of mouse BaF/ERX cells by [3H]thymidine incorporation assay; format: functional, cell-based

| SMILES | IC50 [µM] |
| --- | --- |
| CN1C(=O)N=C(Nc2nc(-c3ccccc3)c(-c3ccccc3)s2)C1=O | > 75 |
| COc1ccc(-c2nc(NC(=O)NCc3ccccc3)sc2-c2ccc(OC)cc2)cc1 | > 75 |
| COc1ccc(-c2nc(NC(=O)[C@H](C)N)sc2-c2ccc(OC)cc2)cc1 | 12 |
| CN1C(=O)N=C(Nc2ncc(Cc3ccc(O)cc3)n2C)C1=O | 4 |
| COc1ccc(Cc2nc(NC3=NC(=O)N(C)C3=O)sc2Cc2ccc(O)cc2)cc1 | 10 |
| CN1C(=O)N=C(Nc2nc(Cc3ccc(OCc4ccccc4)cc3)c(Cc3ccc(O)cc3)s2)C1=O | > 75 |
| CN1C(=O)N=C(Nc2nc(-c3ccccc3)c(Cc3ccc(O)cc3)s2)C1=O | 25 |
| COc1ccc(Cc2nc(NC3=NC(=O)N(C)C3=O)n(C)c2Cc2ccc(O)cc2)cc1 | 3 |
| CN1C(=O)N=C(Nc2nc(-c3ccc(Cl)cc3)c(Cc3ccc(O)cc3)s2)C1=O | 15 |
| COc1ccc(-c2nc(NC3=NC(=O)N(C)C3=O)sc2-c2ccc(OC)cc2)cc1 | 50 |
| COc1ccc(Cc2[nH]c(=N)n(C)c2Cc2ccc(O)cc2)cc1 [NAAMINE A] | 75 |

Now from value to compound:

| IC50 [µM] | SMILES |
| --- | --- |
| 18 | COc1ccc(Cc2nc(N)sc2Cc2ccc(O)cc2)cc1 |
| > 75 | Nc1nc(-c2ccccc2)c(-c2ccccc2)s1 |
| > 75 | Nc1nc(-c2ccc(O)cc2)c(-c2ccc(O)cc2)s1 |
| 50 | Nc1nc(-c2ccccc2)c(Cc2ccc(O)cc2)s1 |
| > 75 | COc1ccc(-c2nc(N)sc2-c2ccc(OC)cc2)cc1 |
| 5 | CN1C(=O)N=C(Nc2nc(-c3ccc(O)cc3)c(-c3ccc(O)cc3)s2)C1=O |

experiment: Inhibition IL3-dependent mitogenesis of mouse BaF/ERX cells by [3H]thymidine incorporation assay; format: functional, cell-based

| IC50 [µM] | SMILES |
| --- | --- |
| 10 | COc1ccc(-c2nc(NC3=NC(=O)N(C)C3=O)sc2-c2ccc(OC)cc2)cc1 |
| 75 | COc1ccc(Cc2[nH]c(=N)n(C)c2Cc2ccc(O)cc2)cc1 [NAAMINE A] |
